Measurements: patent US12492163B2, “9H-fluorene derivatives or their pharmaceutically acceptable salts” (priority 2020, dated 2025)

Key:
Albino Swiss CD-1 mice = assay: Rotarod test; assay type: in vivo
Protocol: (§1) The research was conducted at the Department of Pharmacodynamics, Faculty of Pharmacy, Jagiellonian University in Krakow. All procedures were approved by the 1st and 2nd Local Ethics Committee for Animal Experiments in Krakow (consent no. 53/2017 and 250/2019) and were performed in accordance with the applicable European Union regulation (86/609/EEC). Males of two different strains of domestic mice (Mus musculus) were used in the study: Albino Swiss CD-1 (body weight approx. 20-24 g, age approx. 6 weeks) and C57BL/6J mice (body weight approx. 18-22 g, age approx. 6 weeks). The CD-1 strain was used for the passive avoidance, spontaneous mobility and rotating rod tests, while the C57BL/6J mice were used for the Morris water maze and the Barnes' maze. The animals were kept in standard, appropriately sized cages, divided into groups with a maximum of 10 animals. The animals in the study groups in the learning phase were intraperitoneally administered the test compound 1 h before the start of the experiments (doses in the preliminary test, i.e. in the passive avoidance test: 10, 30 and 60 mg/kg), and 30 minutes later, 1 mg/kg of scopolamine subcutaneously. Two control groups were used in the tests to assess the procognitive activity of JT-3—one of them received saline and the other saline and scopolamine.
Before the experiment, the mice were adequately trained (3 days, rod revolving at 18 rpm). The device consists of a rod set in a horizontal position. It is 75 cm long, divided into 4 tracks, and is set in rotation by an electric motor. This metal rod is placed 50 cm above the table to discourage mice from jumping off it. On the day of the actual test, 24 h after the animals' last training, the mice were placed sequentially on the bar for 60 s (for each rotation speed). The rod rotation speed was set to 6, 18, and 24 rpm, respectively. The inability of the mice to stay on the rod for 60 s was considered a disorder of motor coordination.

C57BL/6J mice = assay: Barnes maze test (scopolamine); assay type: in vivo, Mus musculus
Protocol: as §1
The test is used to study spatial (hippocampal-dependent) memory. […] Barnes' maze has 18 escape holes (escape points) evenly spaced on the outer edges of the circular platform, and only one of them leads to so-called escape box, where the mouse can hide. For the first four days (acquisition phase), the mouse was placed in the center of the maze in the starting chamber, the light was turned on, then the chamber was raised and time was started. The number of errors was also counted, i.e. how many holes the mouse approached before approaching the right hole for the first time, and the total number of errors until it entered the escape box. […] Each mouse was subjected to four trials a day.
On the fifth day, which is the recall phase (without administration of compounds), the box was removed from the escape hole and the total errors, the number of errors made up to the first approach of the mouse to the hole where the escape box was previously found and the latency to the first approach of the mouse were counted for 90 seconds to that hole were counted. The number of approaches to this hole and the time the mouse spent on it were also counted. On the twelfth day—“proper test” (without administration of compounds), the effect of the compound on long-term memory was assessed. The experiment was as in the recall phase; the same parameters were measured. Between the fifth and twelfth days, the animals were kept in home cages.

[1] = Pharmacokinetic parameters in plasma and brain of mice; assay type: in vivo
Protocol: The research was carried out at the Department of Toxicology and Military Pharmacy, Faculty of Military Health Sciences in Hradec Kralove, Defense University in Brno in the Czech Republic, at the Biomedical Research Center and at the Department of Clinical Biochemistry of the University Hospital Hradec Kralove in the Czech Republic. All procedures were carried out under the supervision of the Ethics Committee of the Faculty of Military Health Sciences (No. 20/19; MO 215611/2019-684800). Male and female ICR-CD1 strain of domestic mice (Mus musculus) (body weight approx. 20-25 g) were used in the research. The animals were kept in standard, appropriately sized cages, divided into groups of a maximum of 8 animals. The animals in the test groups were administered the test compound intraperitoneally (doses in the acute toxicity study: 10, 20, 40 and 60 mg/kg, dose in the study of pharmacokinetic parameters 10 mg/kg). Control groups received 1% Tween 80.
After administration of compound JT-3 at the MTD dose (10 mg/kg), animals were subjected to deep terminal sedation at 0, 3, 5, 10, 20, 30, 45, 60, 90, 120, 240 and 360 minutes after dosing (six animals per time interval; n=6) and their blood was drawn by cardiac puncture into heparinized tubes. Samples were centrifuged (3000×g, 10 minutes, 10° C.). Plasma was stored at −80° C. until analyzed by HPLC. Blood in the cerebral vessels would interfere with the actual concentration levels in the brain tissue, therefore the animals were perfused transcardially with physiological saline (0.9% NaCl) for 5 minutes (10 mL/min). After perfusion, the skull was opened and the brain was carefully removed and stored at −80° C. until analyzed by HPLC.
Quantitative analyzes of JT-3 in plasma and brain were performed by HPLC. The method has been fully validated for plasma and partially validated for brain homogenate according to the EMA and FDA guidelines for the validation of bioanalytical methods [Research, C, Anonymous].

O[C@H](CNCC1CC1)[C@H](Cc1ccccc1)NC1c2ccccc2-c2ccccc21 [JT-3, (2R,3S)-3-((9H-fluoren-9-yl)amino)-1-((cyclopropylmethyl)amino)-4-phenylbutan-2-ol]
influence on motor coordination (Albino Swiss CD-1 mice; 10 mg/kg): No negative influence | time kept on the bar (Albino Swiss CD-1 mice; 10 mg/kg and 30 mg/kg, speeds of 6, 18, and 24 rpm, all animals): 60 s | influence on motor coordination (Albino Swiss CD-1 mice; 30 mg/kg): No negative influence | number of errors made before finding the escape site, acquisition phase (C57BL/6J mice; 10 mg/kg i.p., days 1-4): no statistically significant differences | latency to find the escape site, acquisition phase vs scopolamine control (C57BL/6J mice; 10 mg/kg i.p., fourth day of the test, p<0.05): Statistically significant differences | recall phase activity (C57BL/6J mice; fifth day, 10 mg/kg i.p. on days 1-4): not active | number of errors made to find the escape zone vs scopolamine control (C57BL/6J mice; twelfth day, 10 mg/kg i.p. on days 1-4, p<0.0001): the reduction in errors was also statistically significant | latency to find the escape zone vs scopolamine control (C57BL/6J mice; twelfth day, 10 mg/kg i.p. on days 1-4, p<0.05): the reduction in latency was also statistically significant | Vz ([1]; both, ICR-CD1, mouse, in vivo, ip, 10 mg/kg): 40.93 ± 4.95 L/kg | Tmax ([1]; brain, mice, 10 mg/kg i.p.): 0.9167 ± 0.113 h | time of maximum concentration after administration ([1]; mice, 10 mg/kg i.p.): 60 min | penetration into the brain ([1]; mice, 10 mg/kg i.p., higher concentrations in the CNS than in plasma): Very good penetration | Half-life ([1]; plasma, elimination phase, mice, 10 mg/kg i.p.): 2.6907 ± 0.2375 h | Cmax ([1]; plasma, mice, 10 mg/kg i.p.): 430.09 ± 57.94 ng/mL | MRT ([1]; plasma, mice, 10 mg/kg i.p.): 3.6183 ± 0.2942 h | Tmax ([1]; plasma, mice, 10 mg/kg i.p.): 0.3888 ± 0.0828 h | λz (terminal phase rate constant) ([1]; plasma, mice, 10 mg/kg i.p.): 0.0045 ± 0.0004 min⁻¹ | Cmax ([1]; sexes, ICR-CD1, mouse, in vivo, ip, 10 mg/kg): 833 ± 62.3 ng/g
